# Reference: US10975068B2, “6-aminopyridin-3-yl thiazoles as modulators of RORγT” (Janssen Pharmaceutica NV, priority 2016, dated 2021)
# Where two headings read alike, the source gives them in different places.
# Assays:
# [1] = molecular target: human RORγt ligand binding domain (RORγt LBD) (Homo sapiens (Human), UniProt P51449); assay: RORγt ThermoFluor® assay (thermal shift binding); details: read-out: ThermoFluor® Assay, Kd
# Description: ThermoFluor® is a fluorescence based assay that estimates ligand binding affinities by measuring the effect of a ligand on protein thermal stability (Pantoliano, M. W., Petrella, E. C., Kwasnoski, J. D., Lobanov, V. S., Myslik, J., Graf, E., Carver, T., Asel, E., Springer, B. A., Lane, P., and Salemme, F. R. (2001) High-density miniaturized thermal shift assays as a general strategy for drug discovery. J Biomol Screen 6, 429-40, and Matulis, D., Kranz, J. K., Salemme, F. R., and Todd, M. J. (2005) Thermodynamic stability of carbonic anhydrase: measurements of binding affinity and stoichiometry using ThermoFluor. Biochemistry 44, 5258-66). This approach is applicable to a wide variety of systems, and rigorous in theoretical interpretation through quantitation of equilibrium binding constants (KD).
# The shift in the melting point described as a ΔTm is proportional to the concentration and affinity of the ligand. The compound potency may be compared as a rank order of either ΔTm values at a single compound concentration or in terms of KD values, estimated from concentration response curves.
# RORγt ThermoFluor® Assay Construct
# For the RORγt construct used in the ThermoFluor® assay, numbering for the nucleotide sequences was based on the reference sequence for human RORγt, transcript variant 2, NCBI Accession: NM_001001523.1 (SEQ ID NO:1). Nucleotides 850-1635 (SEQ ID NO:2) coding for the wild type human RORγt ligand binding domain (RORγt LBD) were cloned into the pHIS1 vector, a modified pET E. coli expression vector (Accelagen, San Diego), containing an in-frame N-terminal His-tag and a TurboTEV protease cleavage site (ENLYFQG, SEQ ID NO:3) upstream of the cloned insert sequence. The amino acid sequence for the RORγt construct used in the Thermofluor® assay is shown as SEQ ID NO:4.
# ThermoFluor® experiments were carried out using instruments owned by Janssen Research and Discovery, L.L.C. through its acquisition of 3-Dimensional Pharmaceuticals, Inc. 1,8-ANS (Invitrogen) was used as a fluorescent dye. Protein and compound solutions are dispensed into black 384-well polypropylene PCR microplates (Abgene) and overlayed with silicone oil (1 μL, Fluka, type DC 200) to prevent evaporation.
# Bar-coded assay plates are robotically loaded onto a thermostatically controlled PCR-type thermal block and then heated at a typical ramp-rate of 1° C./min for all experiments. Fluorescence was measured by continuous illumination with UV light (Hamamatsu LC6) supplied via fiber optic and filtered through a band-pass filter (380-400 nm; >6 OD cutoff). Fluorescence emission of the entire 384-well plate was detected by measuring light intensity using a CCD camera (Sensys, Roper Scientific) filtered to detect 500±25 nm, resulting in simultaneous and independent readings of all 384 wells. Images were collected at each temperature, and the sum of the pixel intensity in a given area of the assay plate was recorded versus temperature. Reference wells contained RORγt without compounds, and the assay conditions were as follows: • 0.065 mg/mL RORγt • 60 μM 1,8-ANS • 100 mM Hepes, pH 7.0 • 10 mM NaCl • 2.5 mM GSH • 0.002% Tween-20
# Project compounds were arranged in a pre-dosed mother plate (Greiner Bio-one) wherein compounds are serially diluted in 100% DMSO by 1:2 from a high concentration of 10 mM over 12 columns within a series (column 12 is a reference well containing DMSO, no compound). The compounds were robotically dispensed directly into assay plates (×=46 nL) using a Hummingbird capillary liquid handling instrument (Digilab). Following compound dispense, protein and dye in buffer was added to achieve the final assay volume of 3 μL, followed by 1 μL of silicone oil.
# full-length human RORγt = full-length human RORγt (Homo sapiens (Human), UniProt P51449); assay: RORγt (full-length human) reporter assay, Conditions B or C; type: cell-based; details: for RORγt (FL) Reporter Assay B or C, % inhibition (value marked *): marked *: footnote not given; for IC50: read-out: RORγt (FL) Reporter Assay B or C, IC50; for inhibition at 1 µM: at 1 μM compound concentration; for inhibition at 1 µM / inhibition at 3 µM: read-out: RORγt (FL) Reporter Assay B or C, % inhibition; for inhibition at 3 µM: at 3 μM compound concentration
# Description: RORγt (Full-Length Human) Reporter Assay:
# Cells used in this assay were transiently co-transfected with three different plasmids, one expressing the GAL4-DNA binding domain (DBD)-RORγt fusion protein under control of a CMV promoter (NH2-Gal4-DBD:RORC-COOH in pCMV-BD, Stratagene #211342), and two reporter plasmids—the firefly luciferase reporter under control of a GAL4 promoter (pFR-Luc 2×GAL4) and Renilla luciferase reporter under control of CMV promoter (pRL-CMV, Promega # E2261). The full-length coding sequence was used for human RORγt, i.e., nucleotides 142-1635 of human RORγt, transcript variant 2, NCBI Accession: NM_001001523.1 (SEQ ID NO:1). HEK293T cells were plated at 35,000 per well in 96-well plate in medium of DMEM with 10% FBS. After 18-22 hours incubation, the transfection was carried out by using a PEI solution with 170.5 ng total DNA/well (50 ng pCMV-BD-ROR plus 20 ng of pFR-Luc reporter and 0.5 ng of pRL-CMV reporter plus 100 ng Carrier DNA (Clontech #630440) for each well). 4-6 hours after transfection, cells were treated with compounds for overnight in the medium with final concentration of FBS 1.3% and DMSO 0.1%. After overnight (16 to 20 hours) incubation, media were removed and cells were lysed with 50 μL Glo Lysis Buffer (Promega) for 10-15 minutes followed by 10 minute incubation with 50 μL Dual Glo reagent (Promega) at room temperature. Firefly luciferase luminescence was measured using a BMG Pherastar plate reader. To each well, 50 μL Stop and Glo reagent was added and incubated for 10 minutes at room temperature. Renilla luminescence was measured using a BMG Pherastar plate reader. To calculate the effect of compounds on RORγt activity, firefly values were normalized against values of DMSO only and values of reference compound at saturating concentration, then further normalized against Renilla signals. IC50s were generated by plotting final Renilla normalized data against compound concentration and percent inhibition was calculated against DMSO control.
# Cells used in this assay were transiently co-transfected with three different plasmids, one expressing the GAL4-DNA binding domain (DBD)-RORγt fusion protein under control of a CMV promoter (NH2-Gal4-DBD:RORC-COOH in pCMV-BD, Stratagene #211342), and two reporter plasmids—the firefly luciferase reporter under control of a GAL4 promoter (pFR-Luc 2×GAL4) and Renilla luciferase reporter under control of CMV promoter (pRL-CMV, Promega # E2261). The full-length coding sequence was used for human RORγt, i.e., nucleotides 142-1635 of human RORγt, transcript variant 2, NCBI Accession: NM_001001523.1 (SEQ ID NO:1). HEK293T cells were plated at 8750 cells per well in 384-well plate in medium of DMEM with 10% FBS. After 18-22 hours incubation, the transfection was carried out by using a PEI solution with 42.6 ng total DNA/well (12.5 ng pCMV-BD-ROR plus 5 ng of pFR-Luc reporter and 0.125 ng of pRL-CMV reporter plus 25 ng Carrier DNA (Clontech #630440) for each well). 4-6 hours after transfection, cells were treated with compounds for overnight in the medium with final concentration of FBS 1.3% and DMSO 0.1%. After overnight (16 to 20 hours) incubation, media were removed and cells were lysed with 20 μL Glo Lysis Buffer (Promega) for 10-15 minutes followed by 10 minute incubation with 20 μL Dual Glo reagent (Promega) at room temperature. Firefly luciferase luminescence was measured using a BMG Pherastar plate reader. To each well, 20 μL Stop and Glo reagent was added and incubated for 10 minutes at room temperature. Renilla luminescence was measured using a BMG Pherastar plate reader. To calculate the effect of compounds on RORγt activity, firefly values were normalized against values of DMSO only and values of reference compound at saturating concentration, then further normalized against Renilla signals.
# Chain of human RORγt ligand binding domain (RORγt LBD) (P51449 other isoform, or with tags, fused parts or gaps): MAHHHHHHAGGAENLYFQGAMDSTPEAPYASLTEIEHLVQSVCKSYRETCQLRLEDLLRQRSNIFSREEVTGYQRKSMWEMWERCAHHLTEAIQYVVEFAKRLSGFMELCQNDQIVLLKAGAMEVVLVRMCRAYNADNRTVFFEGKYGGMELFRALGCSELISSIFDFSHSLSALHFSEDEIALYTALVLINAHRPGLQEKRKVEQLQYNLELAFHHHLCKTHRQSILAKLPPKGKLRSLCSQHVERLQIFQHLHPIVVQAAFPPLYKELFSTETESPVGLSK
# Chain of full-length human RORγt (P51449 other isoform, or with tags, fused parts or gaps): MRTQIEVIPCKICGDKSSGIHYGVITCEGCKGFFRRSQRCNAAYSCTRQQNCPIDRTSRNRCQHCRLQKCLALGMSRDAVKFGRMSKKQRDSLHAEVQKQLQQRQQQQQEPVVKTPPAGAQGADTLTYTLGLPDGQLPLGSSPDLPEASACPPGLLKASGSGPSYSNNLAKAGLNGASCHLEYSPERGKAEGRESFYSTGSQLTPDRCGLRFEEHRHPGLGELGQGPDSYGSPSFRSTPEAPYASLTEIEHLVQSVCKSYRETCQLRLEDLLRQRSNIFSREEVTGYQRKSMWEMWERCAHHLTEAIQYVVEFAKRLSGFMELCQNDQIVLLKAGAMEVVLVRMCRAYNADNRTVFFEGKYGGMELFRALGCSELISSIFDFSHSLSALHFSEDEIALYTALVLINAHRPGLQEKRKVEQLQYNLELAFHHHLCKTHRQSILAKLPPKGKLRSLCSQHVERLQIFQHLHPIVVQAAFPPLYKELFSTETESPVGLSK
Kd [1] [nM],"RORγt (FL) Reporter Assay B or C, % inhibition (value marked *) (full-length human RORγt; Conditions B or C)",IC50 (full-length human RORγt) [nM],inhibition at 3 µM (full-length human RORγt) [%],other results,SMILES
1.3,98* %,–,–,IC50 (full-length human RORγt; Conditions B or C): 17 nM,"C[C@H](Nc1cc(C(F)(F)F)c(-c2sc(C(=O)N[C@@H](C)C(C)(C)O)nc2C(=O)N2CC(F)(F)C[C@@H]2C)cn1)C1CC1 [Example 202, 5-(6-(((S)-1-Cyclopropylethyl)amino)-4-(trifluoromethyl)pyridine-3-yl)-4-((S)-4,4-difluoro-2-methylpyrrolidine-1-carbonyl)-N—((S)-3-hydroxy-3-methylbutan-2-yl)thiazole-2-carboxamide]"
8.2,–,150,–,inhibition at 1 µM (full-length human RORγt): 97%,"C[C@H]1CCCN1C(=O)c1nc(C(=O)N[C@H]2C[C@H](O)C2)sc1-c1cnc(NC2(C)CCC2)cc1C(F)F [Example 323, 5-(4-(Difluoromethyl)-6-((1-methylcyclobutyl)amino)pyridin-3-yl)-N-((1r,3S)-3-hydroxycyclobutyl)-4-((S)-2-methylpyrrolidine-1-carbonyl)thiazole-2-carboxamide]"
6.8,85* %,–,–,IC50 (full-length human RORγt; Conditions B or C): 140 nM,"C[C@H](Nc1cc(C(F)F)c(-c2sc(C(=O)NC3CCS(=O)(=O)CC3)nc2C(=O)N2CCC[C@@H]2C)cn1)C(F)(F)F [Example 187, 5-(4-(Difluoromethyl)-6-(((S)-1,1,1-trifluoropropan-2-yl)amino)pyridine-3-yl)-N-(1,1-dioxidotetrahydro-2H-thiopyran-4-yl)-4-((S)-2-methylpyrrolidine-1-carbonyl)thiazole-2-carboxamide]"
2.9,–,15,–,inhibition at 1 µM (full-length human RORγt): 99%,"C[C@H]1CC(F)(F)CN1C(=O)c1nc(C(=O)N[C@H]2C[C@H](O)C2)sc1-c1cnc(N[C@@H](C2CC2)C(F)(F)F)cc1C(F)F [Example 315, 5-(6-(((S)-1-Cyclopropyl-2,2,2-trifluoroethyl)amino)-4-(difluoromethyl)pyridin-3-yl)-4-((S)-4,4-difluoro-2-methylpyrrolidine-1-carbonyl)-N-((1r,3S)-3-hydroxycyclobutyl)thiazole-2-carboxamide]"
–,–,–,104,–,"[2H]C([2H])(NC(=O)c1nc(C(=O)N2CCC[C@@H]2C)c(-c2cnc(N[C@@H](C)C(F)(F)F)cc2C(F)F)s1)C(C)(C)O [Example 286, 5-(4-(Difluoromethyl)-6-(((S)-1,1,1-trifluoropropan-2-yl)amino)pyridin-3-yl)-N-(2-hydroxy-2-methylpropyl-1,1-d2)-4-((S)-2-methylpyrrolidine-1-carbonyl)thiazole-2-carboxamide]"
–,106* %,–,–,–,"CC[C@H](Nc1cc(C(F)F)c(-c2sc(C(=O)NCC(C)(C)O)nc2C(=O)N2CCC[C@@H]2C)cn1)C(F)(F)F [Example 92, 5-(4-(Difluoromethyl)-6-(((S)-1,1,1-trifluorobutan-2-yl)amino)pyridin-3-yl)-N-(2-hydroxy-2-methylpropyl)-4-((S)-2-methylpyrrolidine-1-carbonyl)thiazole-2-carboxamide]"
–,–,830,98,–,"C[C@H]1CCCN1C(=O)c1nc(C(=O)NCC(C)(C)O)sc1-c1cnc(NC2CCCCC2)c(C#N)c1 [Example 281, 5-[5-Cyano-6-(cyclohexylamino)-3-pyridyl]-N-(2-hydroxy-2-methyl-propyl)-4-[(2S)-2-methylpyrrolidine-1-carbonyl]thiazole-2-carboxamide]"
–,–,–,–,"RORγt (FL) Reporter Assay B or C, % inhibition (value marked ***) (full-length human RORγt; Conditions B or C, marked ***: footnote not given): 76*** %","C[C@H](Nc1cc(C(F)F)c(-c2sc(C(=O)NCC(C)(C)O)nc2C(=O)N2CCC[C@@H]2C)cn1)C(F)(F)F [Example 145, 5-(4-(Difluoromethyl)-6-(((S)-1,1,1-trifluoropropan-2-yl)amino)pyridin-3-yl)-N-(2-hydroxy-2-methylpropyl)-4-((S)-2-methylpyrrolidine-1-carbonyl)thiazole-2-carboxamide]"
–,–,–,100,–,"[2H]C([2H])(NC(=O)c1nc(C(=O)N2CCC[C@@H]2C)c(-c2cnc(N[C@@H](CC)C(F)(F)F)cc2C(F)F)s1)C(C)(C)O [Example 266, N-(1,1-Dideuterio-2-hydroxy-2-methyl-propyl)-5-[4-(difluoromethyl)-6-[[(1S)-1-(trifluoromethyl)propyl]amino]-3-pyridyl]-4-[(2S)-2-methylpyrrolidine-1-carbonyl]thiazole-2-carboxamide]"
